The assay deals with PC-3-KQ cells. Nature of the assay: 3D spheroid invasion assay and screening of FDA-approved drugs. Type of assay: cell-based, human. Also noted: activity: dose or concentration left out as unconfirmed. The protocol:
The invasion assay was performed as previously described. […] The plates were then centrifuged at 320 g for 4 min to cluster cells in the bottom of wells and incubated for 3 days. On the fourth day, 40 μL medium was removed from each well, 40 μL of the matrigel-medium mixture was added to each well, and cells were cultured for another 3 days. […] At the end of the incubation, images were taken using a phase contrast microscope (Eclipse Ti2, Nikon, Tokyo, Japan) with 10× object lenses, and the total area of cells and the core sphere area of cells (Fig. 1a) were measured using the Image J software. The invading area was calculated using the following formula: invasion area = total area of cells – core sphere area.
For drug screening, drugs were added to the matrigel-medium mixture when replacing the culture medium on day 4. For the initial round of screening, a final concentration of 10 μM was used for all drugs. Multiple drug concentrations were used for the second round of screening, including 0, 0.001, 0.01, 0.1, 1, and 10 μM. Duplicate wells were repeated for each concentration.

Where [1] appears, read: Homo sapiens, 72 h, 0.01 μM (first column so headed), secondary screening of 87 hit compounds (Table S1), compared to vehicle control, read-out: Invasion rates (%) of each drug’s multiple concentrations.
The mark [2] stands for this setting: Homo sapiens, 72 h, 0.01 μM (first column so headed), third screening of 25 hit compounds (Table S2), compared to vehicle control, read-out: Invasion rates (%) of each drug’s multiple concentrations.
The mark [3] stands for this setting: Homo sapiens, 72 h, 0.01 μM (second column so headed), secondary screening of 87 hit compounds (Table S1), compared to vehicle control, read-out: Invasion rates (%) of each drug’s multiple concentrations.
[4] abbreviates: Homo sapiens, 72 h, 0.01 μM (second column so headed), third screening of 25 hit compounds (Table S2), compared to vehicle control, read-out: Invasion rates (%) of each drug’s multiple concentrations.
Where [5] appears, read: Homo sapiens, 72 h, 0.1 μM, secondary screening of 87 hit compounds (Table S1), compared to vehicle control, read-out: Invasion rates (%) of each drug’s multiple concentrations.
Setting [6] is: Homo sapiens, 72 h, 0.1 μM, third screening of 25 hit compounds (Table S2), compared to vehicle control, read-out: Invasion rates (%) of each drug’s multiple concentrations.
Setting [7] is: Homo sapiens, 72 h, 1 μM, secondary screening of 87 hit compounds (Table S1), compared to vehicle control, read-out: Invasion rates (%) of each drug’s multiple concentrations.
Where [8] appears, read: Homo sapiens, 72 h, 1 μM, third screening of 25 hit compounds (Table S2), compared to vehicle control, read-out: Invasion rates (%) of each drug’s multiple concentrations.
The mark [9] stands for this setting: Homo sapiens, 72 h, 10 μM, secondary screening of 87 hit compounds (Table S1), compared to vehicle control, read-out: Invasion rates (%) of each drug’s multiple concentrations.
Where [10] appears, read: Homo sapiens, 72 h, 10 μM, third screening of 25 hit compounds (Table S2), compared to vehicle control, read-out: Invasion rates (%) of each drug’s multiple concentrations.
[11] abbreviates: 0.01 μM (first column so headed), secondary screening of 87 hit compounds (Table S1), compared to vehicle control.
Where [12] appears, read: 0.01 μM (second column so headed), secondary screening of 87 hit compounds (Table S1), compared to vehicle control.
Where [13] appears, read: 0.1 μM, secondary screening of 87 hit compounds (Table S1), compared to vehicle control.
Where [14] appears, read: 1 μM, secondary screening of 87 hit compounds (Table S1), compared to vehicle control.
[15] abbreviates: 10 μM, secondary screening of 87 hit compounds (Table S1), compared to vehicle control.

What is called inhibition is the relative decrease from the control value, in per cent.

Molecules are shown by their SMILES. Read-outs that look alike come from different tables or passages of the source.

Consider `COc1cc2ncnc(Nc3ccc(F)c(Cl)c3)c2cc1NC(=O)/C=C/CN1CCCCC1` [Dacomitinib], for which the activity at 0.01 µM was 78.1% under setting [1], 98.9% under setting [2], 77.8% under setting [3] and 102% under setting [4]. The activity at 0.1 µM under setting [5] turned out to be 73.1% and the activity at 0.1 µM under setting [6] came to 98.6%. The activity at 1 µM is, setting by setting: under setting [7], 44.7%; under setting [8], 90.7%. Further, the activity at 10 µM is 5.75% under setting [9] and 53.9% under setting [10].
Turning to `CS(=O)(=O)O.C[C@H]1NCc2cc(-c3ccc4c(=O)c(C(=O)O)cn(C5CC5)c4c3OC(F)F)ccc21.O` [Garenoxacin (Mesylate hydrate)], the “Invasion rates (%) of each drug’s multiple concentrations (μM)” value (shortened to “Invasion rates (%)”) runs as follows: under setting [11], 89.65%; under setting [12], 95.96%; under setting [13], 85.98%; under setting [14], 96.56%; under setting [15], 48.76%.
Regarding `CN(C)[C@@H]1C(O)=C(C(N)=O)C(=O)[C@@]2(O)C(O)=C3C(=O)c4c(O)cccc4[C@@](C)(O)[C@H]3C[C@@H]12.Cl` [Tetracycline (hydrochloride)], the “Invasion rates (%)” value under setting [11] was 84.87%; the “Invasion rates (%)” value under setting [12] came to 95.46%; the “Invasion rates (%)” value under setting [13] is reported as 83.74%; the “Invasion rates (%)” value under setting [14] was 67.27%; the “Invasion rates (%)” value under setting [15] is 2.14%.
In the case of `CC[C@@]1(O)C(=O)OCc2c1cc1n(c2=O)Cc2cc3cc(O)ccc3nc2-1` [(S)-10-Hydroxycamptothecin], the activity at 0.01 µM is 93.7% (Homo sapiens, 72 h, read-out: Invasion rates (%) of each drug’s multiple concentrations (μM), 0.01 μM (first column so headed), secondary screening of 87 hit compounds (Table S1), compared to vehicle control) and 98.2% (Homo sapiens, 72 h, read-out: Invasion rates (%) of each drug’s multiple concentrations (μM), 0.01 μM (second column so headed), secondary screening of 87 hit compounds (Table S1), compared to vehicle control). For the setting “Homo sapiens, 72 h, read-out: Invasion rates (%) of each drug’s multiple concentrations (μM), 0.1 μM, secondary screening of 87 hit compounds (Table S1), compared to vehicle control”, the activity at 0.1 µM turned out to be 85%. In addition, the activity at 1 µM (Homo sapiens, 72 h, read-out: Invasion rates (%) of each drug’s multiple concentrations (μM), 1 μM, secondary screening of 87 hit compounds (Table S1), compared to vehicle control) was determined as 89.9%. In addition, the activity at 10 µM (Homo sapiens, 72 h, read-out: Invasion rates (%) of each drug’s multiple concentrations (μM), 10 μM, secondary screening of 87 hit compounds (Table S1), compared to vehicle control) was 85.1%.
With `CC/C(=C(\c1ccccc1)c1ccc(OCCN(C)C)cc1)c1ccccc1.O=C(O)CC(O)(CC(=O)O)C(=O)O` [Tamoxifen (Citrate)], the “Invasion rates (%)” value worked out at 94.34% under setting [11]; 97.97% under setting [12]; 91.22% under setting [13]; 85.65% under setting [14]; 1.00% under setting [15].
Consider `Cn1c([N+](=O)[O-])cnc1COC(N)=O` [Ronidazole], for which the activity at 0.01 µM under setting [1] was determined as 64.2%, the activity at 0.01 µM under setting [2] was 81.8%, the activity at 0.01 µM under setting [3] was determined as 67.3% and the activity at 0.01 µM under setting [4] came to 87.5%. For the same compound, the activity at 0.1 µM under setting [5] was 27.6% and the activity at 0.1 µM under setting [6] came to 5.74%. In addition, the activity at 1 µM runs as follows: under setting [7], 5.96%; under setting [8], 3.06%. Moreover, the activity at 10 µM was found to be 5.14% under setting [9] and 2.89% under setting [10]. For the setting “Homo sapiens, at 0.1 μM, read-out: inhibition of cell invasion”, the inhibition at 0.1 µM was above 50%.
As to `NC(=O)N/N=C/c1ccc([N+](=O)[O-])o1` [Nitrofurazone], the activity at 0.01 µM under setting [1] is 94.8%. For the same compound, the activity at 0.1 µM under setting [5] was 80.4%. Also, under setting [7], the activity at 1 µM came out at 70.7%. The activity at 10 µM under setting [9] was 6.3%. Also, for the setting “Homo sapiens, 72 h, secondary screening of 87 hit compounds (Table S1), compared to vehicle control, read-out: Invasion rates (%) of each drug’s multiple concentrations”, the activity was determined as 98.8%.
In the case of `CCN(CC)CCOc1ccc2c(c1)C(=O)c1cc(OCCN(CC)CC)ccc1-2.Cl.Cl` [Tilorone (dihydrochloride)], the “Invasion rates (%)” value is on record as 95.38% under setting [11]; 99.11% under setting [12]; 94.30% under setting [13]; 93.22% under setting [14]; 9.81% under setting [15].
For `COc1cccc2c1C(=O)c1c(O)c3c(c(O)c1C2=O)C[C@@](O)(C(=O)CO)C[C@@H]3O[C@H]1C[C@H](N)[C@@H](O)[C@H](C)O1.Cl` [Epirubicin (hydrochloride)], in that order: 94.42%, 95.60%, 93.22%, 88.57% and 4.65%.
For `Cl.Cl.O=C1c2c(O)ccc(O)c2C(=O)c2c(NCCNCCO)ccc(NCCNCCO)c21` [Mitoxantrone (dihydrochloride)], in that order: 88.48%, 95.77%, 89.03%, 87.29% and 31.96%.
Turning to `CN(C)[C@@H]1C(O)=C(C(N)=O)C(=O)[C@@]2(O)C(O)=C3C(=O)c4c(O)cccc4[C@@](C)(O)[C@H]3[C@H](O)[C@@H]12` [Oxytetracycline], the activity at 0.01 µM by setting is: under setting [1], 84.1%; under setting [3], 91%. Besides, the activity at 0.1 µM under setting [5] is 82.2%. Moreover, the activity at 1 µM under setting [7] turned out to be 71.3%. The activity at 10 µM under setting [9] turned out to be 8.26%.
In the case of `CC1CCc2c(N3CCC(O)CC3)c(F)cc3c(=O)c(C(=O)O)cn1c23` (stereo not shown) [Nadifloxacin], the activity at 0.01 µM is, setting by setting: under setting [1], 102%; under setting [3], 104%. For the same compound, the activity at 0.1 µM under setting [5] worked out at 101%. Moreover, the activity at 1 µM under setting [7] is 100%. Moreover, the activity at 10 µM under setting [9] came out at 1.03%.
As for `COC(=O)c1ccc2c(c1)NC(=O)/C2=C(\Nc1ccc(N(C)C(=O)CN2CCN(C)CC2)cc1)c1ccccc1` [Nintedanib], the activity at 0.01 µM turned out to be 98.1% under setting [1] and 98.3% under setting [3]. In addition, under setting [5], the activity at 0.1 µM was 97.5%. Besides, the activity at 1 µM under setting [7] was determined as 95.2%. Moreover, under setting [9], the activity at 10 µM is 36.2%.
For `Cc1ncc([N+](=O)[O-])n1CC(C)O` (stereo not shown) [Secnidazole], in that order: 94.7%, 96.4%, 89%, 82.8% and 4.4%.
In the case of `CC[C@@]1(O)C[C@H](O[C@H]2C[C@H](N(C)C)[C@H](O[C@H]3C[C@H](O)[C@H](O[C@H]4CCC(=O)[C@H](C)O4)[C@H](C)O3)[C@H](C)O2)c2c(cc3c(c2O)C(=O)c2c(O)cccc2C3=O)[C@H]1C(=O)OC.Cl` [Aclacinomycin A hydrochloride], the “Invasion rates (%)” value is, setting by setting: under setting [11], 84.24%; under setting [12], 96.55%; under setting [13], 76.95%; under setting [14], 81.36%; under setting [15], 1.28%.
For `CC(=O)O[C@H]1C[C@@]2(C)[C@@H](C[C@@H](O)[C@H]3[C@@]4(C)CC[C@@H](O)[C@@H](C)[C@@H]4CC[C@@]32C)/C1=C(\CCC=C(C)C)C(=O)[O-].[Na+]` [Fusidic acid (sodium salt)], in that order: 92.69%, 89.70%, 87.85%, 68.14% and 0.70%.
